Results as given in patent publication US20110015162A1, “15,16-Methylene-17-hydroxy-19-nor-21-carboxylic acid-steroid Y-lactone derivative, use thereof and medicinal products containing the derivative” (Bayer Schering Pharma Aktiengesellschaft, priority 2007, published 2011).
pEC50, pIC50: −log10 of the molar value. Like-named read-outs stand apart in the source and are kept apart here.

Assays:
[1] = target: T1, fusion protein from the PR-ligand-binding domain and a Gal4-transactivation domain (Homo sapiens, UniProt P06401); assay: Progestational action by transactivation test (CHO K1 reporter cells); assay type: cell-based; settings: for Emax: CHO-K1, 16 h, read-out: Progesterone receptor Agonism efficacy
T1 construct: expressed in transfected cells; host or cells: CHO K1 cells, stably transfected
T1 sequence (P04386 1-147 partner limits assumed, one chain of several): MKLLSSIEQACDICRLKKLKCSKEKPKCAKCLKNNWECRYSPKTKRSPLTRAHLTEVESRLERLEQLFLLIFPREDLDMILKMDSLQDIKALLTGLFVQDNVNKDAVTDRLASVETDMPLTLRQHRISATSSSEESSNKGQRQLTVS
Protocol: 4. Determination of Progestational Action by Means of Transactivation Tests:
The culture medium used for culture of the cells used for the assay was DMEM (Dulbecco's Modified Eagle Medium: […] glucose; PAA, #E15-009) with 10% FCS (Biochrom, S0115, batch #615B), 4 mM L-glutamine, 1% penicillin/streptomycin, 1 mg/ml G418 and 0.5 μg/ml puromycin.
Reporter cell lines (CHO K1 cells stably transfected with a fusion protein from the PR-ligand-binding domain and a Gal4-transactivation domain and a reporter construct, which contained luciferase under the control of a Gal4-responsive promoter) were seeded at a density of 4×10^4 cells per well in white, opaque tissue culture plates each with 96 wells (PerkinElmer, #P12-106-017) and kept in culture medium with 3% DCC-FCS (serum treated with activated charcoal to remove interfering components contained in the serum). The test compounds were added eight hours later, and the cells were incubated with the compounds for 16 hours. The tests were carried out in triplicate. At the end of incubation the medium containing the effector was removed and replaced with lysis buffer. After luciferase assay substrate (Promega, #E1501) had been added, the 96-well plates were then put in a microplate luminometer (Pherastar, BMG Labtech), and the luminescence was measured. The IC50 values were evaluated using software for calculating dose-effect relations.

[2] = target: T2, androgen receptor (Homo sapiens, UniProt P10275); assay: Androgenic/antiandrogenic action by transactivation test (PC3 reporter cells); assay type: cell-based; design: expressed in transfected cells; host or cells: PC3 cells
T2 sequence (P10275 1-920): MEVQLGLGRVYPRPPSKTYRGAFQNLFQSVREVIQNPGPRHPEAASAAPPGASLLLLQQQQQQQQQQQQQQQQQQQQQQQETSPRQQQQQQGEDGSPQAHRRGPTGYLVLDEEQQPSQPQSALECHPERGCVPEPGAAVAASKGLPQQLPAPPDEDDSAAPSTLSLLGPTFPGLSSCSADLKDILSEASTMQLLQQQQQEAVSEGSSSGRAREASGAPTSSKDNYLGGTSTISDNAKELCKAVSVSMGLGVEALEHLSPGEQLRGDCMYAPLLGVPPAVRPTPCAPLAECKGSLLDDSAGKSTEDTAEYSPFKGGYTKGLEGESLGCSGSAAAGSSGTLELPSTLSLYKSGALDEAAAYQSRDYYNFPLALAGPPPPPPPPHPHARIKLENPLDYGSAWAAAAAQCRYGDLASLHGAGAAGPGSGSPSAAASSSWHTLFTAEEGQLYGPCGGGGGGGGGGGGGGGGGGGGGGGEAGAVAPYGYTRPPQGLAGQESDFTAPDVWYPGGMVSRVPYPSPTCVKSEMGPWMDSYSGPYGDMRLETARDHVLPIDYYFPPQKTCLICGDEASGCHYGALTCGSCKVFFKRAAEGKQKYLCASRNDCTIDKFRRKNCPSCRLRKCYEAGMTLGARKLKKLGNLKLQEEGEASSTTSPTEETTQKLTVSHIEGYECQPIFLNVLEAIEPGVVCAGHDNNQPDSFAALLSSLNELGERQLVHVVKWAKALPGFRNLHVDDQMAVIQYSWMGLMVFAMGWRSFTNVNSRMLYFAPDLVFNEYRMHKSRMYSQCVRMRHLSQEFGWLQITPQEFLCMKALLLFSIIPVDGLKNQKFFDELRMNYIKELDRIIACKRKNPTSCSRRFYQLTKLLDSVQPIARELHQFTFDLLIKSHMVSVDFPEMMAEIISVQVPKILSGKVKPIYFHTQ
Protocol: The test compounds were added eight hours later, and the cells were incubated with the compounds for 16 hours. The tests were carried out in triplicate. At the end of incubation the medium containing the effector was removed and replaced with lysis buffer. After luciferase assay substrate (Promega, #E1501) had been added, the 96-well plates were then put in a microplate luminometer (Pherastar, BMG Labtech), and the luminescence was measured. The IC50 values were evaluated using software for calculating dose-effect relations.
6. Determination of Androgenic/Antiandrogenic Action by Means of Transactivation Tests:
The androgenic/antiandrogenic action of the test substances was determined as for the transactivation tests described above.
The following modifications were made: In this case reporter cell lines were used (PC3 cells) that express the androgen receptor, and a reporter construct that contains luciferase under the control of a steroid hormone-responsive promoter.
For determination of the antiandrogenic efficacy, 0.05 nM R1881 was added to the cells, in order to achieve almost maximum stimulation of the reporter gene.

[3] = target: T3, progesterone receptor (Homo sapiens, UniProt P06401); assay: Progesterone receptor binding test; settings: for Progesterone receptor (PR) Competition factor: CF 1 = affinity of progesterone, CF >1 lower affinity, <1 higher affinity; for CF PR/CF MR: ratio of competition factors CF(PR) and CF(MR)
T3 construct: made in house; host or cells: Hi5 insect cells (cytosol)
T3 sequence (P06401 1-933): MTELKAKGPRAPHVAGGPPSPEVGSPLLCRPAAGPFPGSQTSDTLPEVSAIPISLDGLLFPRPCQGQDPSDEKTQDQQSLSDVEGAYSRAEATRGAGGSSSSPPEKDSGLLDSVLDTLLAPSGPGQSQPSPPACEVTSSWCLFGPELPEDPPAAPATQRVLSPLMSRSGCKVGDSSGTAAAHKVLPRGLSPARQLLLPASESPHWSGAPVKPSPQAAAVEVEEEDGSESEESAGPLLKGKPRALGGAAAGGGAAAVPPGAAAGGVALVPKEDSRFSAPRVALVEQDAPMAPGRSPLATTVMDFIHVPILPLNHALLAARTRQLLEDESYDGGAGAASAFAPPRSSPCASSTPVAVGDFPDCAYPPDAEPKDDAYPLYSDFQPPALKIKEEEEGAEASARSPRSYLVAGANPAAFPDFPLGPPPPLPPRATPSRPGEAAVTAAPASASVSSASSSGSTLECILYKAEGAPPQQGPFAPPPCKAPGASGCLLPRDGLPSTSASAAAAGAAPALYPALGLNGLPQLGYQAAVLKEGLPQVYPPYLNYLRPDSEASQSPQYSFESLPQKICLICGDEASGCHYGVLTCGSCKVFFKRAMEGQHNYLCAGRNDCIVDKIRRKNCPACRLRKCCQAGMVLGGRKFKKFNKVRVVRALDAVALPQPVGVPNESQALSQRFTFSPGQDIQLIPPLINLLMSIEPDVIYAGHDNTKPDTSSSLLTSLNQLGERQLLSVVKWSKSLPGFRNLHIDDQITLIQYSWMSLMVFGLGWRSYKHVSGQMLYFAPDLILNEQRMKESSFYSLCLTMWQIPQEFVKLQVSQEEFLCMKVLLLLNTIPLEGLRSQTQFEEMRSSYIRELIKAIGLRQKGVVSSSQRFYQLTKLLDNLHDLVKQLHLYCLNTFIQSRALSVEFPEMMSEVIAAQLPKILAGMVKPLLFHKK
Protocol: 1. Progesterone Receptor Binding Test:
Using cytosol from progesterone receptor-expressing insect cells (Hi5), competitive binding to the progesterone receptor was determined from the ability to displace ^3H-progesterone as reference substance from the receptor.

[4] = PC-3, read-out: Androgen receptor Agonism efficacy
[5] = PC-3, read-out: Androgen receptor Antagonism efficacy

Compound | pEC50 [1] | Emax [1] [%] | pEC50 [2] | Emax [2, 4] [%] | Emax [2, 5] [%] | pIC50 [3] | Progesterone receptor (PR) Competition factor [3] | CF PR/CF MR [3]
CC[C@]12CC[C@H]3[C@@H]([C@H]4C[C@H]4C4=CC(=O)CC[C@@H]43)[C@@H]1[C@@H]1C[C@@H]1[C@@]21C=CC(=O)O1 [Example 1, 6β,7β;15β,16β-Bismethylene-17β-hydroxy-18-methyl-19-nor-17α-pregna-4,20(Z)-dien-3-one-21-carboxylic acid γ-lactone] | 8.82 | 62.8 | 7.00 | 46.3 | 5 | 7.39 | 0.76 | 0.48
CC[C@]12CC[C@H]3[C@@H]([C@@H]4C[C@@H]4C4=CC(=O)CC[C@@H]43)[C@@H]1[C@@H]1C[C@@H]1[C@@]21C=CC(=O)O1 [Example 2, 6α,7α;15β,16β-Bismethylene-17β-hydroxy-18-methyl-19-nor-17α-pregna-4,20(Z)-dien-3-one-21-carboxylic acid γ-lactone] |  |  | 6.89 | 32.6 | 5 | 6.20 | 24.37 | 5.54
CC[C@]12CC[C@H]3[C@@H](C=CC4=CC(=O)CC[C@@H]43)[C@@H]1[C@@H]1C[C@@H]1[C@@]21C=CC(=O)O1 [Example 3, 17β-Hydroxy-18-methyl-15β,16β-methylene-19-nor-17α-pregna-4,6,20(Z)-trien-3-one-21-carboxylic acid γ-lactone] | 8.85 | 34.2 | 6.92 | 25.4 | 5 | 7.14 | 2.72 | 1.81
CC[C@]12CC[C@H]3[C@H]([C@@H]1[C@@H]1C[C@@H]1[C@@]21C=CC(=O)O1)[C@H](C)CC1=CC(=O)CC[C@@H]13 [Example 4A, 7α,18-Bismethyl-17β-hydroxy-15β,16β-methylene-19-nor-17α-pregna-4,20(Z)-dien-3-one-21-carboxylic acid γ-lactone] | 7.41 | 71.1 | 8.52 | 97.5 | 5 | 7.32 | 2.66 | 4.43
CC[C@@H]1CC2=CC(=O)CC[C@@H]2[C@H]2CC[C@@]3(CC)[C@@H]([C@@H]4C[C@@H]4[C@@]34C=CC(=O)O4)[C@H]12 [Example 5A, 17β-Hydroxy-7α-ethyl-18-methyl-15β,16β-methylene-19-nor-17α-pregna-4,20(Z)-dien-3-one-21-carboxylic acid γ-lactone] | 7.00 | 35.7 | 8.08 | 73 | 5 | 6.52 | 12.00 | 12.00
C=C[C@@H]1CC2=CC(=O)CC[C@@H]2[C@H]2CC[C@@]3(CC)[C@@H]([C@@H]4C[C@@H]4[C@@]34C=CC(=O)O4)[C@@H]21 [Example 6A, 17β-Hydroxy-7α-vinyl-18-methyl-15β,16β-methylene-19-nor-17α-pregna-4,20(Z)-dien-3-one-21-carboxylic acid γ-lactone] | 6.85 | 35.2 | 9.01 | 118 | 5 | 6.92 | 4.85 | 3.23
C[C@]12CC[C@H]3[C@@H](CCC4=CC(=O)CC[C@@H]43)[C@@H]1[C@@H]1C[C@@H]1[C@@]21C=CC(=O)O1 [Example 19, 17β-Hydroxy-15β,16β-methylene-19-nor-17α-pregna-4,20(Z)-dien-3-one-21-carboxylic acid γ-lactone] |  |  | 8.28 | 87.5 | 5 | 7.60 | 1.70 | 0.01
